Source: ChEMBL document CHEMBL1158238, “New prenylflavones from the leaves of Epimedium saggitatum” (J Nat Prod, 1996)

Test system: Platelet
Experiment: Inhibition of arachidonic acid-induced platelets aggregation by turbidimetry
Assay type: functional, cell-based

IC50 | SMILES
7.14 µM | C=C(C)C(O)Cc1cc(-c2cc(=O)c3c(O)cc(O)cc3o2)cc2c1OC(C)(C)C=C2 (configuration not stated) [YINYANGHUO A]
1.67 µM | C=C(C)C(O)Cc1cc(-c2cc(=O)c3c(O)cc(O)cc3o2)cc(CC=C(C)C)c1O (configuration not stated) [YINYANGHUO B]
